Test: molar heat capacity at constant pressure
Conditions: 101.33 kPa, Vacuum adiabatic calorimetry

CCCC(=O)OC [methyl butanoate]
molar heat capacity at constant pressure [J/K/mol]
Conditions	Crystal	Liquid
130 K	99.17	–
131.79 K	100.55	–
133.79 K	101.43	–
135.8 K	102.27	–
137.8 K	103.03	–
139.79 K	103.9	–
140 K	103.65	–
141.79 K	104.89	–
143.79 K	105.51	–
145.78 K	106.36	–
147.78 K	107.25	–
149.77 K	107.92	–
150 K	108.14	–
151.89 K	109.06	–
153.86 K	109.91	–
155.85 K	110.69	–
157.83 K	111.73	–
159.81 K	112.47	–
160 K	112.62	–
161.79 K	113.29	–
163.77 K	114.29	–
165.74 K	115.26	–
167.72 K	116.18	–
169.56 K	116.65	–
170 K	117.11	–
171.52 K	117.81	–
173.49 K	119.09	–
175.45 K	120.75	–
177.41 K	122.58	–
179.36 K	125.17	–
180 K	121.59	–
181.29 K	129.69	–
183.2 K	139.88	–
185.04 K	158.37	–
186.78 K	216.75	–
188.21 K	448.34	–
189.16 K	1561.8	–
189.7 K	8659.7	–
190 K	126.08	–
190.09 K	126.12	184.56
191.08 K	185.22	–
192.79 K	–	184.74
194.49 K	–	184.98
196.18 K	–	185.21
197.88 K	–	185.04
199.57 K	–	185.15
200 K	–	185.19
201.25 K	–	185.01
202.85 K	–	185.47
202.93 K	–	185.15
204.61 K	–	185.47
204.73 K	–	185.64
206.27 K	–	185.39
206.69 K	–	185.68
207.94 K	–	185.44
208.64 K	–	186
210 K	–	185.83
210.58 K	–	186.03
212.53 K	–	186
214.48 K	–	186.17
216.42 K	–	186.44
218.37 K	–	186.11
220 K	–	186.51
220.31 K	–	186.33
222.24 K	–	186.86
224.17 K	–	186.8
226.1 K	–	186.88
228.02 K	–	187.23
229.93 K	–	187.61
230 K	–	187.52
231.85 K	–	187.86
233.68 K	–	187.83
235.58 K	–	188.04
237.48 K	–	188.4
239.37 K	–	188.78
240 K	–	188.78
241.26 K	–	188.74
243.14 K	–	189.23
245.01 K	–	189.8
246.89 K	–	190.04
248.76 K	–	190.11
250 K	–	190.21
250.62 K	–	190.43
252.49 K	–	190.56
254.35 K	–	190.93
256.2 K	–	190.97
258.06 K	–	191.41
259.91 K	–	191.46
260 K	–	191.68
261.76 K	–	191.67
263.49 K	–	192.11
265.34 K	–	192.17
267.17 K	–	192.77
269.01 K	–	193.06
270 K	–	193.16
270.85 K	–	193.64
272.68 K	–	194.01
274.5 K	–	193.7
276.33 K	–	194.03
278.16 K	–	194.27
279.98 K	–	194.58
280 K	–	194.68
281.79 K	–	195.04
283.59 K	–	195.25
285.4 K	–	195.54
287.19 K	–	195.76
288.98 K	–	196.51
290 K	–	196.51
290.74 K	–	196.84
292.33 K	–	196.73
294.09 K	–	197.27
295.83 K	–	197.8
297.59 K	–	198
298.15 K	–	198.08
299.34 K	–	198.43
300 K	–	198.44
301.06 K	–	198.72
302.76 K	–	198.98
304.45 K	–	199.24
306.14 K	–	199.38
307.81 K	–	199.85
309.48 K	–	200.31
310 K	–	200.39
311.13 K	–	200.58
312.78 K	–	200.66
314.42 K	–	201.21
316.05 K	–	201.68
317.67 K	–	201.91
318.97 K	–	202.28
320 K	–	202.43
320.57 K	–	202.72
322.17 K	–	203.14
323.75 K	–	203.27
325.32 K	–	203.68
326.89 K	–	204.18
328.44 K	–	204.41
329.98 K	–	204.65
330 K	–	204.68
331.51 K	–	204.84
333.03 K	–	205.34
334.54 K	–	205.78
336.04 K	–	206.3
337.49 K	–	206.62
338.96 K	–	206.61
340 K	–	207.21
340.42 K	–	207.11
341.87 K	–	207.49
342.87 K	–	207.85
344.3 K	–	208.38
345.71 K	–	208.82
347.12 K	–	209.31
348.51 K	–	209.73
349.89 K	–	209.95
350 K	–	210.03
351.26 K	–	210.42
352.61 K	–	210.86
353.95 K	–	211.39
355.28 K	–	211.75
356.6 K	–	211.91
357.9 K	–	212.69
359.2 K	–	212.83
360 K	–	213
360.47 K	–	213.07
361.74 K	–	213.3
362.99 K	–	214.05
363.57 K	–	213.92
364.8 K	–	214.49
366.02 K	–	214.53
367.22 K	–	214.65
368.41 K	–	215.35
369.58 K	–	215.99
370 K	–	215.8
370.75 K	–	216.01
371.9 K	–	216.31
